“And” between values parts separate entries of the source, which are not always exact repeats. Identical values can stand only once. Counter-ions that a name gives are not always drawn. Like-named read-outs stand apart in the source and are kept apart here.
Key:
Assay type in all cases: in vivo
[1] = tested on: Male Sprague-Dawley rats; assay: Spinal anesthetic effect (spinal blockade) after intrathecal injection in rats; design: AUC of time-% PE curve, spinal blockade of motor function / AUC of time-% PE curve, spinal blockade of proprioception / AUC of time-% PE curve, spinal blockade of nociceptive reaction: unit not given beside the values; settings: for AUC of time-% PE curve, spinal blockade of motor function / AUC of time-% PE curve, spinal blockade of nociceptive reaction / AUC of time-% PE curve, spinal blockade of proprioception: 2 ED50 when administered independently, ED50 of each drug when co-administered, mean ± SEM; for Motor function ED50 (95% CI): spinal blockade of motor function; for Motor function ED50 (95% CI) / Nociceptive reaction ED50 (95% CI) / Proprioception ED50 (95% CI): intrathecal injection; for Nociceptive reaction ED50 (95% CI): spinal blockade of nociceptive reaction; for Proprioception ED50 (95% CI): spinal blockade of proprioception; for Mean value ED25 / Mean value ED50 / Mean value ED75: spinal blockade, mean of motor function, proprioception and nociceptive reaction
Protocol: (§1) Male Sprague-Dawley rats (weighing about 300 to 350 g); for each dose of each drug, n=6.
In brief, for preparation, the hairs on the back of each rat were shaved, and the shaved back was sterilized with iodine.
After three minutes, 50 μL of each of the tested drugs was injected via a 27-gauge needle attached to a 100-μL syringe (Hamilton, Reno, Nev.) into the intrathecal space between the fourth and fifth lumbar vertebrae. The development of spinal blockade was observed from the paralysis of the hind limbs of the rats.
The magnitude of nerve block (including blocking of motor function, proprioception, and nociceptive reaction) was expressed as the percentage of possible effect (hereinafter referred to as % PE), and the maximal value of % PE was expressed as the percentage of maximal possible effect (hereinafter referred to as % MPE).
Motor function was evaluated by measuring the extensor postural thrust of the right hind limbs of the rats using a digital platform balance (Mettler Toledo, Switzerland, model PB1502-S). To test the extensor postural thrust, the rat was held upright with the hind limb extended, so that the body weight of the rat was supported by the distal metatarsus and toes. The extensor postural thrust could be measured as the force of the right hind limb of the rat thrusting the platform balance.
A reduction in the force, resulting in extensor muscle tone, was considered as a motor deficit. A force less than 20 g (i.e., a weight of the “flaccid limb”) was considered absence of an extensor postural thrust or 100% motor block or 100% MPE.
Proprioception was evaluated based on resting posture and postural reactions (including tactile placing and hopping). First, the front half of the rat body and one of the hind limbs were lifted off the ground at the same time so that the rat was standing on one hind limb. Then, the rat was moved laterally, which normally evoked a prompt hopping response of the weight-bearing hind limb of the rat in the direction of movement so as to avoid falling. A predominantly proprioceptive block caused a delayed hopping followed by greater lateral hops. […] Functional deficits were classified into four grades: 3 (normal or 0% MPE), 2 (slightly impaired), 1 (severely impaired), and 0 (completely impaired or 100% MPE).
Nociceptive reaction was evaluated by the withdrawal reflex or vocalization elicited by the pinch of a skin fold over the back at 1 cm near the proximal part of the tail, the lateral metatarsus of the bilateral hind limbs, and the dorsal part of the mid-tail. At each testing time, only one pinch was given to each of the abovementioned four testing sites, and the time interval between stimulations at different sites was around 2 seconds. Nociceptive reactions were classified into five grades: 4 (normal or 0% MPE), 3 (25% MPE), 2 (50% MPE), 1 (75% MPE), and 0 (absent or 100% MPE).
The potency of each drug on spinal blockades was compared using ED50.
Duration was defined as the interval from injection of the tested drugs to complete recovery. The ED25, ED50 and ED75 obtained according to the SAS NLIN analysis in the preceding section “C. Potency evaluation” were used in this experiment.
Regarding the method of evaluating the effect of co-administration, dextromethorphan hydrobromide monohydrate was used as an example.
After the tests, the time of measurement of each drug and its corresponding % PE were plotted to obtain the time-% PE curves of each drug. The area under the curve (AUC) of time-% PE was calculated using the trapezoidal rule, and was used to evaluate the effect of the co-administration of the drugs.
Statistical software, SPSS for Windows® (version 10.0.7) was used. Data were represented as mean±SEM.

[2] = tested on: sciatic nerve; assay: Sciatic nerve blockade after injection at the sciatic nerve notch in rats; design: AUC of time-% PE curve, sciatic nerve blockade of motor function / AUC of time-% PE curve, sciatic nerve blockade of proprioception / AUC of time-% PE curve, sciatic nerve blockade of nociceptive reaction: unit not given beside the values; settings: for ED50: Rattus norvegicus
Protocol: as §1
In brief, the rats were slightly anesthetized by inhalation of a low concentration of sevoflurane. Then, 200 μL of tested drugs were injected at the sciatic nerve notch at the left hind limb of the rat using a 27-gauge needle connected to a tuberculin syringe (Becton Dickinson, USA, model BND309623-BX). Thereafter, development of sciatic nerve blockade was observed from the paralysis of the left hind limb of the rat. The right hind limb served as a control during the subsequent functional assay
For proprioception, the front half of the rat body and the right hind limb were off the ground at the same time so that the rat was standing on the left hind limb during the measurement.
The differences resided in that: The sciatic nerve notch injections of ED25, ED50 and ED75 were conducted based on the method described in the preceding section “A. Drug injection” of this example. Evaluations of motor function, proprioception and nociceptive reaction were conducted based on the method described in section “B. Neurobehavioral evaluations” of this example.
The differences resided in that: Before the statistical analysis, Shapiro-Wilk test was used to evaluate whether the data were, theoretically, normally distributed.

[3] = tested on: Male Sprague-Dawley rats; assay: Infiltrative cutaneous anesthesia (inhibition of cutaneous trunci muscle reflex, CTMR) after subcutaneous injection in rats
Protocol: Male Sprague-Dawley rats (weighing about 200 to 250 g); for each dose of each drug, n=8.
In brief, hairs on the dorsal surface (about 10×10 cm^2) of the thoracolumbar region of the rat were shaved, and the shaved surface was sterilized with iodine for preparation. To reduce the number of animals used, the back of the rat was further divided into left and right parts. One drug was injected first at the right part. After a washout period of one week, another drug was injected at the left part.
0.6 mL of drug was injected subcutaneously under the dorsal surface of the thoracolumbar region of the rat using a 30-gauge needle attached to a syringe (Becton Drive, Franklin Lakes, USA). The subcutaneous injection would result in a circular elevation (i.e., a wheal) of the skin, about 2 cm in diameter. The elevation was marked with ink within 1 minute after injection.
CTMR refers to the reflex movement of the skin of the back caused by twitching of the lateral thoracispinal muscle in response to local dorsal cutaneous stimulation. Essentially, a von Frey filament (No.15; Somedic Sales AB, Sweden) to which a cut end of an 18-gauge needle was affixed was used to produce a standard nociceptive stimulus (strength: 19 g). Six pinpricks (at a frequency of 0.5-1 Hz) were applied to a single marked wheal during each test. […] For example, absence of any response to all of the 6 pinpricks was defined as a complete nociceptive block (i.e., 100% MPE).
The difference resided in that subcutaneous injections of ED25, ED50 and ED75 of the drugs were performed based on the method described in the section “A. Drug injection” of this example, and evaluation of the infiltrative cutaneous anesthetic effect was performed based on the method described in the section “B. Neurobehavioral evaluation” of this example.

[4] = read-out: Motor function ED50 (95% CI)
[5] = read-out: Nociceptive reaction ED50 (95% CI)
[6] = read-out: Proprioception ED50 (95% CI)
[7] = rats, 2ED50 when administered independently, ED50 of each drug when co-administered, mean ± SEM
[8] = dosage of 6.7 mg/kg, sciatic nerve notch injection, rats
[9] = infiltrative cutaneous anesthesia, rats, 2ED50 when administered independently, ED50 for co-administration, mean ± SEM, hydrochloride
[10] = infiltrative cutaneous anesthesia, subcutaneous injection, rats
[11] = subcutaneous dose of ED75, rats, mean±SEM
[12] = intrathecal dose of ED75, injection to complete recovery, rats
[13] = intrathecal dose of ED75, rats, mean±SEM
[14] = intrathecal, rats, hydrochloride

SMILES: COc1ccc2c(c1)[C@@]13CCCC[C@H]1[C@@H](C2)NCC3.Cl [3-methoxymorphinan hydrochloride]
- % MPE of spinal blockades of motor function, proprioception and nociceptive reaction (range over the three functions) ([1]; intrathecal dose of ED75, rats): 66-79 % MPE
- duration of spinal blockades of motor function, proprioception and nociceptive reaction (range over the three functions) ([1]; intrathecal dose of ED75, rats): 28 to 35 min
- effect of co-administration with bupivacaine hydrochloride on spinal blockade ([1]; intrathecal, rats, ED50 of each drug): additive effect
- AUC of time-% PE curve, spinal blockade of motor function ([1]; intrathecal, rats): 1265 ± 232
- AUC of time-% PE curve, spinal blockade of nociceptive reaction ([1]; intrathecal, rats): 2081 ± 227
- AUC of time-% PE curve, spinal blockade of proprioception ([1]; intrathecal, rats): 1917 ± 254
- Motor function ED50 (95% CI) ([1]; rats): 0.45 (0.43–0.47) mg
- Nociceptive reaction ED50 (95% CI) ([1]; rats): 0.39 (0.37–0.42) mg
- Proprioception ED50 (95% CI) ([1]; rats): 0.40 (0.38–0.43) mg
- Mean value ED25 ([1]; intrathecal, rats): 0.33 mg
- Mean value ED50 ([1]; intrathecal, rats): 0.41 mg
- Mean value ED75 ([1]; intrathecal, rats): 0.53 mg
- sciatic nerve blocking effect on nociceptive reaction compared with motor function ([2]; ED50 basis, p<0.01, rats): more potent sciatic nerve blocking effect on nociceptive reaction than on motor function
- ED50 ([2]; read-out: Mean ED50): 6.68 mg/kg
- ED50 [2, 4]: 7.4 mg/kg
- ED50 [2, 5]: 5.89 mg/kg
- ED50 [2, 6]: 6.76 mg/kg
- effect of co-administration with lidocaine hydrochloride on sciatic nerve blockades ([2]; rats, ED50 of each drug): additive effect
- AUC of time-% PE curve, sciatic nerve blockade of motor function [2, 7]: 4559 ± 584
- AUC of time-% PE curve, sciatic nerve blockade of nociceptive reaction [2, 7]: 8026 ± 1437
- AUC of time-% PE curve, sciatic nerve blockade of proprioception [2, 7]: 5191 ± 652
- duration of sciatic nerve blockade compared with lidocaine hydrochloride ([2]; same effective doses (ED25, ED50 or ED75), rats): longer reaction duration

SMILES: CCN(CC)CC(=O)Nc1c(C)cccc1C [Lidocaine hydrochloride, reference compound]
- ED50 [2, 4]: 2.67 mg/kg
- ED50 [2, 5]: 2.35 mg/kg
- ED50 [2, 6]: 2.57 mg/kg
- % MPE of sciatic nerve blockade of motor function [2, 8]: 100 % MPE
- % MPE of sciatic nerve blockade of nociceptive reaction [2, 8]: 100 % MPE
- % MPE of sciatic nerve blockade of proprioception [2, 8]: 100 % MPE
- duration of sciatic nerve blockade of motor function [2, 8]: about 63±6 minutes
- duration of sciatic nerve blockade of nociceptive reaction [2, 8]: ~83 ± 6 min
- duration of sciatic nerve blockade of proprioception [2, 8]: ~73 ± 4 min
- ED50 ([3]; Rattus norvegicus, sc, infiltrative cutaneous anesthesia, subcutaneous injection, rats, read-out: ED50 (95% CI)): 7 mg/kg
- % MPE [3, 9]: 90 ± 5 % MPE and 88 ± 6 % MPE
- Duration [3, 9]: 51 ± 3 min and 52 ± 4 min
- ED25 [3, 10]: 5.31 mg/kg
- ED75 [3, 10]: 9.24 mg/kg
- % MPE of cutaneous nociceptive block [3, 11]: 72±7 % MPE
- duration of cutaneous nociceptive block [3, 11]: ~33 ± 4 min

SMILES: CCCCN1CCCCC1C(=O)Nc1c(C)cccc1C (centres unmarked) [Bupivacaine hydrochloride, reference compound]
- duration of spinal blockade of motor function [1, 12]: about 25±3 minutes
- duration of spinal blockade of nociceptive reaction [1, 12]: ~63 ± 7 min
- duration of spinal blockade of proprioception [1, 12]: ~32 ± 4 min
- % MPE of spinal blockade of motor function [1, 13]: about 71±3 % MPE
- % MPE of spinal blockade of nociceptive reaction [1, 13]: ~81±3 % MPE
- % MPE of spinal blockade of proprioception [1, 13]: ~72±4 % MPE
- AUC of time-% PE curve, spinal blockade of motor function [1, 14]: 1292 ± 113 and 1238 ± 147 and 1383 ± 131
- AUC of time-% PE curve, spinal blockade of nociceptive reaction [1, 14]: 4378 ± 184 and 4512 ± 229 and 4410 ± 225
- AUC of time-% PE curve, spinal blockade of proprioception [1, 14]: 2597 ± 245 and 2638 ± 308 and 2774 ± 299
- Motor function ED50 (95% CI) ([1]; rats): 0.12 (0.11–0.12) mg
- Nociceptive reaction ED50 (95% CI) ([1]; rats): 0.09 (0.08–0.09) mg
- Proprioception ED50 (95% CI) ([1]; rats): 0.10 (0.10–0.11) mg
- Mean value ED25 ([1]; intrathecal, rats): 0.08 mg
- Mean value ED50 ([1]; intrathecal, rats): 0.11 mg
- Mean value ED75 ([1]; intrathecal, rats): 0.14 mg

Reference: patent US20080070939A1, “LOCAL […] COMPOSITIONS CONTAINING DEXTROROTATORY MORPHINAN DERIVATIVES OR PHARMACEUTICALLY ACCEPTABLE SALTS THEREOF” (CHI MEI FOUNDATION HOSPITAL, priority 2006, published 2008)
